This passage reports IC50 results from ChEMBL document CHEMBL4706697, “Structure-based designing and synthesis of 2-phenylchromone derivatives as potent tyrosinase inhibitors: In vitro and in silico studies” (Bioorg Med Chem, 2021).

By IC50 is commonly meant the concentration that gives 50% inhibition.

The target in one assay is T1, Mushroom tyrosinase (Agaricus bisporus, UniProt O42713+Q00024+C7FF04+C7FF05). In words: Inhibition of mushroom tyrosinase using L-Dopa as substrate […]. Background: In an ELISA, binding on a coated surface is turned into a signal by an enzyme label.
For `COc1ccc(/C=C2\NC(=S)NC2=O)c(OC)c1`, the IC50 stood at 1.07 µM. In other words, the single-digit micromolar range.
Still for that read-out and setting: in the case of `O=C(O)S[C@H]1N=N[C@@H](NC(=S)Nc2cccc(C(F)(F)F)c2)S1` it was 6.13 µM.
The same measure, in the same setting: in the case of `O=C(Nc1cccc(Cl)c1)Nc1ccc2c(c1)S(=O)(=O)NC2=O` it was 5.85 µM.
`CCN1CCN(CC(=O)Nc2ccc3oc(-c4ccc(C(C)(C)C)cc4)nc3c2)CC1` showed an IC50 of 8.14 µM.

The target of a further assay is T1, Mushroom tyrosinase. The assay can be described thus: Inhibition of mushroom tyrosinase using L-Dopa as substrate preincubated for 10 mins followed by substrate addition and measured after 20 mins.
Molecule `Cc1ccc(S(=O)(=O)n2cc(-c3cc(=O)c4c(Br)cc(Br)cc4o3)c3ccccc32)cc1` registered an IC50 of 22.22 µg/mL.
As for `O=C(O)c1ccc(-c2cc(=O)c3c(Br)cc(Br)cc3o2)cc1`, the IC50 stood at 9.7 µg/mL.
Same read-out and setting: next, `COc1ccc(-c2cc(=O)c3c(Br)cc(Br)cc3o2)cc1OC`: 0.49 µg/mL.
`O=C(O)c1ccc(-c2oc3cc(Br)cc(Br)c3c(=O)c2O)cc1` registered an IC50 of 4.26 µg/mL.
The same measure, in the same setting: in the case of `O=c1c(O)c(-c2cccc3ccccc23)oc2cc(Br)cc(Br)c12` it was 0.564 µg/mL; in that of `O=c1c(O)c(-c2ccc(F)cc2)oc2cc(Br)cc(Br)c12`, 2.36 µg/mL.
Same read-out and setting: in the case of `O=c1cc(-c2ccc(Cl)cc2)oc2cc(Br)cc(Br)c12` it was 4.2 µg/mL.
`Cc1ccc(S(=O)(=O)n2cc(-c3oc4cc(Br)cc(Br)c4c(=O)c3O)c3ccccc32)cc1` showed an IC50 of 8.175 µg/mL.
On the same count and under the same terms, in the case of `O=c1c(O)c(-c2c[nH]c3ccccc23)oc2cc(Br)cc(Br)c12` it was 23.58 µg/mL; in that of `O=c1c(O)c(-c2ccc(Cl)cc2)oc2cc(Br)cc(Br)c12`, 0.71 µg/mL; in that of `O=c1c(O)c(-c2ccc(O)cc2)oc2ccccc12`, 0.23 µM.
The molecule `Cc1ccc(-c2cc(=O)c3c(Br)cc(Br)cc3o2)cc1` registered an IC50 of 7.2 µg/mL.
Consider `O=c1cc(-c2ccc([N+](=O)[O-])cc2)oc2cc(Br)cc(Br)c12`, for which the IC50 was determined as 0.27 µg/mL.
Same read-out and setting: in the case of `COc1ccc(-c2oc3cc(Br)cc(Br)c3c(=O)c2O)cc1OC` it was 0.093 µg/mL; in that of `O=c1cc(-c2cccc3ccccc23)oc2cc(Br)cc(Br)c12`, 3.41 µg/mL; in that of `Cc1ccc(-c2oc3cc(Br)cc(Br)c3c(=O)c2O)cc1`, 0.126 µg/mL.
In the case of `O=c1c(O)c(-c2cccc([N+](=O)[O-])c2)oc2cc(Br)cc(Br)c12`, the IC50 turned out to be 0.15 µg/mL. The IC50 values of the last two molecules are within 1.5-fold of each other.
Regarding `O=c1cc(-c2ccc(F)cc2)oc2cc(Br)cc(Br)c12`, the IC50 was determined as 20.5 µg/mL.
Same read-out and setting: in the case of `Cc1ccc(-c2cc(=O)c3c(Br)cc(Br)cc3o2)c(C)c1` it was 11.33 µg/mL; in that of `O=c1cc(-c2ccco2)oc2cc(Br)cc(Br)c12`, 2.07 µg/mL.
Consider `O=c1c(O)c(-c2cccs2)oc2cc(Br)cc(Br)c12`, for which the IC50 was found to be 3.01 µg/mL.
The same measure, in the same setting: next, `CN(C)c1ccc(-c2oc3cc(Br)cc(Br)c3c(=O)c2O)cc1`: 0.5 µg/mL; `O=c1cc(-c2c[nH]c3ccccc23)oc2cc(Br)cc(Br)c12`: 0.22 µg/mL; `O=c1cc(-c2cccs2)oc2cc(Br)cc(Br)c12`: 0.68 µg/mL.
Still for that read-out and setting: next, `O=c1c(O)c(-c2ccco2)oc2cc(Br)cc(Br)c12`: 2.5 µg/mL.
The molecule `O=c1c(O)c(-c2ccc([N+](=O)[O-])cc2)oc2cc(Br)cc(Br)c12` yielded an IC50 of 0.27 µg/mL.
On the same count and under the same terms, next, `Cc1ccc(-c2oc3cc(Br)cc(Br)c3c(=O)c2O)c(C)c1`: 7.57 µg/mL; `CN(C)c1ccc(-c2cc(=O)c3c(Br)cc(Br)cc3o2)cc1`: 0.57 µg/mL; `O=c1cc(-c2cccc([N+](=O)[O-])c2)oc2cc(Br)cc(Br)c12`: 3.28 µg/mL.

In a further assay the target is T1, Mushroom tyrosinase. The assay can be described thus: Inhibition of mushroom tyrosinase.
As to `C=CCc1ccc(OC(=O)COC(=O)/C=C/c2ccc(O)cc2)c(OC)c1`, the IC50 turned out to be 3 µM. This lies in the single-digit micromolar range.
